# Conditions: laminin fragments in a collagen-filled silicon tube
# Text: The present invention is directed to a biomaterial for nerve reconstruction, comprising chitin or chitosan with a surface modified by a laminin fragment having an amino acid sequence, such as YIGSR (tyrosine-isoleucine-glycine-serine-arginine) or IKVAV (isoleucine-lysine-valine-alanine-valine). This material may be used in the form of a nerve-bridging chitosan tube with a wall surface directly modified by the above laminin fragment, a nerve-bridging tube containing therein chitosan fibers with a surface modified by the above laminin fragment, or a nerve-bridging tube filled with chitosan gel modified by the above laminin fragment.
row,Substance,cell adhesion and neurite growth-promoting effects in vivo
1,isoleucine-lysine-valine-alanine-valine [IKVAV],cannot achieve such effects
2,tyrosine-isoleucine-glycine-serine-arginine [YIGSR],cannot achieve such effects
